Each structure is given as a SMILES string. Converted amounts (≈) assume the structure as drawn. The source made the active and inactive calls. The rule behind the calls is not given here.

By MBC is commonly meant the lowest tested concentration that kills the bacteria rather than only halting them. One may read the Kd as a measure of binding affinity in units of concentration.

The subject of assay [1] is Staphylococcus aureus. Kind of assay: Antibacterial activity against methicillin-resistant Staphylococcus aureus ATCC BAA41 assessed as inhibition of bacterial growth incubated for 24 hrs by checker board assay. Format: functional.
Assay [2] has as its system Staphylococcus aureus. Kind of assay: microbe, parasite or virus in culture. To be noted: ATCC BAA41, 24 h.
Description: Synergistic antibacterial activity against methicillin-resistant Staphylococcus aureus ATCC BAA41 assessed as inhibition of bacterial growth incubated for 24 hrs in presence of (E)-2-(4-(dimethylamino)styryl)-1-methyl-4-(4-methylpiperidin-1-yl)quinolin-1-ium iodide by checker board assay
In assay [3] the test system is Staphylococcus aureus. The assay is described as follows: microbe, parasite or virus in culture. To be noted: ATCC BAA41, 24 h. This is another data set of the same source.
Description: Synergistic antibacterial activity against methicillin-resistant Staphylococcus aureus ATCC BAA41 assessed as inhibition of bacterial growth incubated for 24 hrs in presence of (E)-4-(4-(dimethylamino)styryl)-1-methyl-2-(4-methylpiperidin-1-yl)quinolin-1-ium iodide by checker board assay
Assay [4] concerns Staphylococcus aureus. Kind of assay: microbe, parasite or virus in culture. To be noted: ATCC BAA41, 24 h. The source holds these as a separate data set.
Description: Synergistic antibacterial activity against methicillin-resistant Staphylococcus aureus ATCC BAA41 assessed as inhibition of bacterial growth incubated for 24 hrs in presence of (E)-2-(4-(dimethylamino)styryl)-1-methyl-4-(piperidin-1-yl)quinolin-1-ium iodide by checker board assay
The test system of assay [5] is Staphylococcus aureus. The assay is described as follows: microbe, parasite or virus in culture. The note with it: ATCC BAA41, 24 h. This is another data set of the same source.
Description: Synergistic antibacterial activity against methicillin-resistant Staphylococcus aureus ATCC BAA41 assessed as inhibition of bacterial growth incubated for 24 hrs in presence of (E)-2-(4-(dimethylamino)styryl)-1-methyl-4-(pentylamino)quinolin-1-ium iodide by checker board assay
Assay [6] is described as follows: Ratio of MBC for bactericidal activity against Bacillus subtilis CMCC (B) 63501 to MIC for antibacterial activity against Bacillus subtilis CMCC (B) 63501. Format: functional.
Assay [7] can be described thus: Ratio of MBC for bactericidal activity against Enterococcus faecium ATCC 700221 to MIC for antibacterial activity against Enterococcus faecium ATCC 700221. Format: functional.
Assay [8] deals with T1, Cell division protein FtsZ (Staphylococcus aureus) (UniProt P0A031).
T1 sequence (whole entry): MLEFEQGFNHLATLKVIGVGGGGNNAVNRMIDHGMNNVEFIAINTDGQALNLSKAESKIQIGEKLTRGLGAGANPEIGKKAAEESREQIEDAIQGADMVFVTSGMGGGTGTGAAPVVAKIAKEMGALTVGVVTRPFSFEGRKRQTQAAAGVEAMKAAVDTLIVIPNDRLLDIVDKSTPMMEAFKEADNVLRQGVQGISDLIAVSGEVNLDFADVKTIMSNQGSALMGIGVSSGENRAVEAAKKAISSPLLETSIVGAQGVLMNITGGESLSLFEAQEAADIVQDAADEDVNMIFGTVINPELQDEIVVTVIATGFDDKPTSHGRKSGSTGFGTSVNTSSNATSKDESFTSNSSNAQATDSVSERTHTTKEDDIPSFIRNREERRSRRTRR
Kind of assay: Induction of Staphylococcus aureus FtsZ polymerization expressed in Escherichia coli BL21 (DE3) assessed as increase in absorbance at 2 to 8 ug/ml in presence of GTP by microplate reader method. To be noted: dose 2-8 µg/ml, DDE = dose-dependent effect.

Assay [9] deals with Staphylococcus aureus. Kind of assay: Antibacterial activity against Staphylococcus aureus ATCC 29213 assessed as inhibition of bacterial growth incubated for 20 to 24 hrs by broth micro dilution method. In kind it is functional. The note with it: time 20-24 hrs.
In assay [10] the test system is Staphylococcus aureus. Kind of assay: Antibacterial activity against methicillin-resistant Staphylococcus aureus ATCC 43300 assessed as inhibition of bacterial growth incubated for 20 to 24 hrs by broth micro dilution method. The note with it: time 20-24 hrs. Format: functional.
Assay [11] concerns Staphylococcus aureus. Kind of assay: Antibacterial activity against methicillin-resistant Staphylococcus aureus ATCC 33592 assessed as inhibition of bacterial growth incubated for 20 to 24 hrs by broth micro dilution method. Format: functional. The note with it: time 20-24 hrs.
Assay [12] relates to Staphylococcus aureus. The assay is described as follows: Antibacterial activity against methicillin-resistant Staphylococcus aureus ATCC BAA-1720 assessed as inhibition of bacterial growth incubated for 20 to 24 hrs by broth micro dilution method. In kind it is functional. To be noted: time 20-24 hrs.
Assay [13] relates to Staphylococcus aureus. The assay is described as follows: Antibacterial activity against vancomycin-intermediate Staphylococcus aureus Mu50 assessed as inhibition of bacterial growth incubated for 20 to 24 hrs by broth micro dilution method. To be noted: time 20-24 hrs. In kind it is functional.
Assay [14] relates to Staphylococcus epidermidis. The assay is described as follows: Antibacterial activity against Staphylococcus epidermidis ATCC 12228 assessed as inhibition of bacterial growth incubated for 20 to 24 hrs by broth micro dilution method. Format: functional. To be noted: time 20-24 hrs.
Assay [15] has as its system Bacillus subtilis. The assay is described as follows: Antibacterial activity against Bacillus subtilis CMCC (B) 63501 assessed as inhibition of bacterial growth incubated for 20 to 24 hrs by broth micro dilution method. The note with it: time 20-24 hrs. In kind it is functional.
The test system of assay [16] is Enterococcus faecium. Kind of assay: Antibacterial activity against Enterococcus faecium ATCC 49624 assessed as inhibition of bacterial growth incubated for 20 to 24 hrs by broth micro dilution method. Format: functional. To be noted: time 20-24 hrs.
For assay [17], the system named is Enterococcus faecalis. The assay is described as follows: Antibacterial activity against Enterococcus faecalis ATCC 29212 assessed as inhibition of bacterial growth incubated for 20 to 24 hrs by broth micro dilution method. Format: functional. To be noted: time 20-24 hrs.
The test system of assay [18] is Enterococcus faecium. The assay is described as follows: Antibacterial activity against vancomycin resistant Enterococcus faecium ATCC 700221 assessed as inhibition of bacterial growth incubated for 20 to 24 hrs by broth micro dilution method. Format: functional. To be noted: time 20-24 hrs.
For assay [19], the system named is Enterococcus faecium. The assay is described as follows: Antibacterial activity against vancomycin-resistant Enterococcus faecium clinical isolate assessed as inhibition of bacterial growth incubated for 20 to 24 hrs by broth micro dilution method. In kind it is functional. The note with it: time 20-24 hrs.
The subject of assay [20] is Escherichia coli. The assay is described as follows: Antibacterial activity against Escherichia coli ATCC 25922 assessed as inhibition of bacterial growth incubated for 20 to 24 hrs by broth micro dilution method. Format: functional. To be noted: time 20-24 hrs.
For assay [21], the system named is Escherichia coli. Kind of assay: Antibacterial activity against Escherichia coli ATCC 8739 assessed as inhibition of bacterial growth incubated for 20 to 24 hrs by broth micro dilution method. In kind it is functional. To be noted: time 20-24 hrs.
In assay [22] the test system is Escherichia coli. The assay is described as follows: Antibacterial activity against NDM-1 expressing Escherichia coli ATCC BAA2469 assessed as inhibition of bacterial growth incubated for 20 to 24 hrs by broth micro dilution method. Format: functional. The note with it: time 20-24 hrs.
Assay [23] relates to Acinetobacter baumannii. The assay is described as follows: Antibacterial activity against multi-drug resistant Acinetobacter baumannii ATCC 19606 assessed as inhibition of bacterial growth incubated for 20 to 24 hrs by broth micro dilution method. Format: functional. The note with it: time 20-24 hrs.
The subject of assay [24] is Pseudomonas aeruginosa. The assay is described as follows: Antibacterial activity against […] Pseudomonas aeruginosa ATCC 27853 assessed as inhibition of bacterial growth incubated for 20 to 24 hrs by broth micro dilution method. Format: functional. The note with it: time 20-24 hrs.
The subject of assay [25] is Klebsiella pneumoniae. The assay is described as follows: Antibacterial activity against NDM-1 expressing Klebsiella pneumoniae ATCC BAA 2470 assessed as inhibition of bacterial growth incubated for 20 to 24 hrs by broth micro dilution method. In kind it is functional. The note with it: time 20-24 hrs.
The subject of assay [26] is Bacillus subtilis. Kind of assay: Bactericidal activity against Bacillus subtilis CMCC (B) 63501 assessed as inhibition of bacterial growth incubated for 24 hrs by resazurin dye based microtiter plate assay. In kind it is functional. For orientation: Resazurin is reduced to fluorescent resorufin, in cell work by metabolically active cells.
The test system of assay [27] is Staphylococcus aureus. Kind of assay: Bactericidal activity against Staphylococcus aureus ATCC 29213 assessed as inhibition of bacterial growth incubated for 24 hrs by resazurin dye based microtiter plate assay. In kind it is functional.
In assay [28] the test system is Staphylococcus aureus. The assay is described as follows: Bactericidal activity against Staphylococcus aureus ATCC 43300 assessed as inhibition of bacterial growth incubated for 24 hrs by resazurin dye based microtiter plate assay. Format: functional.
The test system of assay [29] is Enterococcus faecium. Kind of assay: Bactericidal activity against Enterococcus faecium ATCC 700221 assessed as inhibition of bacterial growth incubated for 24 hrs by resazurin dye based microtiter plate assay. In kind it is functional.
A short description of assay [30]: Ratio of MBC for bactericidal activity against Staphylococcus aureus ATCC 29213 to MIC for antibacterial activity against Staphylococcus aureus ATCC 29213. In kind it is functional.
Assay [31] can be described thus: Ratio of MBC for bactericidal activity against Staphylococcus aureus ATCC 43300 to MIC for antibacterial activity against Staphylococcus aureus ATCC 43300. In kind it is functional.
Assay [32] concerns Staphylococcus aureus. Kind of assay: Antibacterial activity against methicillin-resistant Staphylococcus aureus ATCC BAA41 assessed as fractional inhibitory concentration index incubated for 24 hrs by checker board assay. Format: functional.
The subject of assay [33] is Staphylococcus aureus. Kind of assay: Synergistic antibacterial activity against methicillin-resistant Staphylococcus aureus ATCC BAA41 assessed as inhibition of bacterial growth incubated for 24 hrs in presence of methicillin by checker board assay. In kind it is functional.
The subject of assay [34] is Bacillus subtilis. Kind of assay: Induction of morphological changes in Bacillus subtilis CMCC (B) 63501 assessed as elongation of bacterial cell at 0.5 times MIC for 4 hrs (reference value: 3 to 5 um) by microscopic analysis. Format: functional.
In assay [35] the test system is Staphylococcus aureus. The assay is described as follows: Induction of morphological changes in Staphylococcus aureus ATCC 29213 assessed as enlargement of cell size at 0.5 times MIC for 4 hrs by microscopic analysis. Format: functional, organism-based.
In assay [36] the target is T1, Cell division protein FtsZ (Staphylococcus aureus). Kind of assay: Binding affinity to Staphylococcus aureus FtsZ assessed as equilibrium binding constant by isothermal titration calorimetry. In general terms: In ITC the heat of successive injections is recorded.
Assay [37] has the same target. Kind of assay: Binding affinity to Staphylococcus aureus FtsZ assessed as increase in alpha helix structure at 8 ug/ml incubated for 30 mins by circular dichroism method. To be noted: dose 8.0 µg/ml. On the technique in general: CD spectra are sensitive to the conformation of chiral molecules.
Assay [38] shares this target. Kind of assay: Binding affinity to Staphylococcus aureus FtsZ assessed as decrease in beta turn structure at 8 ug/ml incubated for 30 mins by circular dichroism method. To be noted: dose 8.0 µg/ml.
The target is the same in assay [39]. Kind of assay: Binding affinity to Staphylococcus aureus FtsZ assessed as decrease in random coil structure at 8 ug/ml incubated for 30 mins by circular dichroism method. The note with it: dose 8.0 µg/ml.
For assay [40] the target is unchanged. Kind of assay: Binding affinity to Staphylococcus aureus FtsZ assessed as decrease in other structure at 8 ug/ml incubated for 30 mins by circular dichroism method. The note with it: dose 8.0 µg/ml.
Assay [41] has as its target T2, Cell division protein FtsZ (Staphylococcus aureus, UniProt P0A031).
T2 sequence (P0A031 whole entry): T1 sequence (whole entry)
Kind of assay: Binding affinity to Staphylococcus aureus FtsZ assessed as dissociation constant by isothermal titration calorimetry.

For `COc1cccc(OC)c1C(=O)N[C@@H]1C(=O)N2[C@@H]1SC(C)(C)[C@@H]2C(=O)O` [METHICILLIN], the MIC is 1020 µg/mL in [1]; 64 µg/mL (≈ 168 µM) in assay [2]; 64 µg/mL (≈ 168 µM) in assay [3]; 128 µg/mL (≈ 336 µM) in assay [4]; 256 µg/mL (≈ 673 µM) in assay [5].

For the molecule `CCCCCNc1cc(/C=C/c2ccc(N(C)C)cc2)[n+](C)c2ccccc12.[I-]`, the Ratio in assay [6] was found to be 1; in assay [7] it was 2; in assay [30], 4; in assay [31], 4. The Activity result in [8] is “Dde”; in assay [34], 30 um. The MIC worked out at 2 µg/mL in assay [9]; 2 µg/mL in [10]; 2 µg/mL in [11]; 1 µg/mL in assay [12]; 4 µg/mL in assay [13]; 1 µg/mL in [14]. In addition, the MIC worked out at 4 µg/mL in [15]; 8 µg/mL in assay [16]; 4 µg/mL in assay [17]; 4 µg/mL in assay [18]; 4 µg/mL in [19]; 64 µg/mL in assay [20]. In addition, the MIC in assay [21] was over 64 µg/mL; in [22] it was over 64 µg/mL; in assay [23] it was over 64 µg/mL; in assay [24], over 64 µg/mL; in assay [25] it was over 64 µg/mL; in assay [1], 4 µg/mL. Moreover, the MIC in assay [33] turned out to be 0.5 µg/mL. Besides, the MBC in assay [26] came to 4 µg/mL; in [27], 8 µg/mL; in assay [28], 8 µg/mL; in assay [29], 8 µg/mL. The “fractional inhibitory concentration index (FICI)” value in assay [32] is reported as 0.375. Also, the result in assay [35], in [37], in [38], in assay [39] and in assay [40] was Active. In assay [36], the Kb was 2.01 10^5/M. The dissociation constant (Kd) in assay [41] was determined as 2380 nM.
